The values that follow come from patent US12084430B2, “Tricyclic urea compounds as JAK2 V617F inhibitors” (Incyte Corporation, priority 2022, dated 2024).

Where two headings read alike, the source gives them in different places.

Assay [1] has as its target T1, catalytic domain (JH1, amino acids 826-1132) of human JAK2 (Homo sapiens, UniProt O60674).
T1 construct: catalytic domain (JH1, amino acids 826-1132) of human JAK2; FLAG (N); biotin (biotinylated); purchased Carna Biosciences 08-445-20N; host or cells: baculovirus expression system
The assay can be described thus: JAK2 LanthaScreen JH1 binding assay. To be noted: read-out: JH1 Bind IC50. As to the method:
Example A. JAK2 LanthaScreen […] Binding Assay
JAK2 JH1 binding assay utilizes catalytic domain (JH1, amino acids 826-1132) of human JAK2 expressed as N-terminal FLAG-tagged, biotinylated protein in a baculovirus expression system (Carna Biosciences, Product #08-445-20N). The assay was conducted in black 384-well polystyrene plates in a final reaction volume of 20 μL. JAK2 JH1 (1.5 nM) was incubated with compounds (100 nL serially diluted in DMSO) in the presence of 50 nM fluorescent JAK2-JH1 tracer and 0.5 nM Streptavidin-Tb cryptate (Cisbio Part #610SATLB) in assay buffer (50 mM Tris, pH=7.5, 10 mM MgCl2, 0.01% Brij-35, 0.1% BSA, 1 mM EGTA, 5% Glycerol and 5 mM DTT). Non-specific binding was accessed in the presence of 2 mM ATP. After incubation for 2 hours at 25° C., LanthaScreen signals were read on a PHERAstar FS plate reader (BMG LABTECH). Data was analyzed with IDBS XLfit and GraphPad Prism 5.0 software using a four parameter dose response curve to determine IC50 for each compound.

The target of assay [2] is T2, pseudo-kinase domain (JH2) of human V617F mutant JAK2 (Homo sapiens, UniProt O60674, F794H/V617F/W659A/W777A).
T2 construct: pseudo-kinase domain (JH2, amino-acids 536-812 with 3 surface mutations W659A, W777A, F794H); His (C); purchased BPS Bioscience 79498; host or cells: baculovirus expression system
T2 sequence (O60674 536-812 V617F/W659A/W777A/F794H): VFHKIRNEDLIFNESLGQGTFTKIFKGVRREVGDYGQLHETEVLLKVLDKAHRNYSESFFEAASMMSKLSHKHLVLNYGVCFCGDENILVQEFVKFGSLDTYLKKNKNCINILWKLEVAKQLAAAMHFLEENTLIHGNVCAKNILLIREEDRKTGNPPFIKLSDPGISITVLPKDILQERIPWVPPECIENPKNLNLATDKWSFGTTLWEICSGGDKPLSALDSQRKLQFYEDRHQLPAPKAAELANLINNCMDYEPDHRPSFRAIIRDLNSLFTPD
Description: JAK2 LanthaScreen JH2-V617F binding assay. The following applies: read-out: JH2 V617F Bind IC50. Here is the method:
Example B. JAK2 LanthaScreen JH2-V617F Binding Assay
JAK2 JH2-V617F binding assay utilizes pseudo-kinase domain (JH2, amino-acids 536-812 with 3 surface mutations W659A, W777A, F794H) of human V617F mutant JAK2 expressed as C-terminal His-Avi-tagged, biotinylated protein in a baculovirus expression system (BPS Bioscience, Catalog #79498). The assay was conducted in black 384-well polystyrene plates in a final reaction volume of 20 μL. JAK2 JH2-V617F (0.26 nM) was incubated with compounds (100 nL serially diluted in DMSO) in the presence of 50 nM Fluorescent JAK2-JH2 Tracer (MedChem Express Catalog #HY-102055) and 0.25 nM Streptavidin-Tb cryptate (Cisbio Part #610SATLB) in assay buffer (50 mM Tris, pH=7.5, 10 mM MgCl2, 0.01% Brij-35, 0.1% BSA, 1 mM EGTA, 5% Glycerol and 5 mM DTT). Non-specific binding was accessed in the presence of 2 mM ATP. After incubation for 1 hour at 25° C., LanthaScreen signals were read on a PHERAstar FS plate reader (BMG LABTECH). Data was analyzed with IDBS XLfit and GraphPad Prism 5.0 software using a four parameter dose response curve to determine IC50 for each compound.
(In general: Time-resolved FRET reads energy transfer from a long-lived donor to a nearby acceptor.)

A further assay deals with T3, FLT3 (Homo sapiens, UniProt P36888).
T3 sequence (P36888 27-993): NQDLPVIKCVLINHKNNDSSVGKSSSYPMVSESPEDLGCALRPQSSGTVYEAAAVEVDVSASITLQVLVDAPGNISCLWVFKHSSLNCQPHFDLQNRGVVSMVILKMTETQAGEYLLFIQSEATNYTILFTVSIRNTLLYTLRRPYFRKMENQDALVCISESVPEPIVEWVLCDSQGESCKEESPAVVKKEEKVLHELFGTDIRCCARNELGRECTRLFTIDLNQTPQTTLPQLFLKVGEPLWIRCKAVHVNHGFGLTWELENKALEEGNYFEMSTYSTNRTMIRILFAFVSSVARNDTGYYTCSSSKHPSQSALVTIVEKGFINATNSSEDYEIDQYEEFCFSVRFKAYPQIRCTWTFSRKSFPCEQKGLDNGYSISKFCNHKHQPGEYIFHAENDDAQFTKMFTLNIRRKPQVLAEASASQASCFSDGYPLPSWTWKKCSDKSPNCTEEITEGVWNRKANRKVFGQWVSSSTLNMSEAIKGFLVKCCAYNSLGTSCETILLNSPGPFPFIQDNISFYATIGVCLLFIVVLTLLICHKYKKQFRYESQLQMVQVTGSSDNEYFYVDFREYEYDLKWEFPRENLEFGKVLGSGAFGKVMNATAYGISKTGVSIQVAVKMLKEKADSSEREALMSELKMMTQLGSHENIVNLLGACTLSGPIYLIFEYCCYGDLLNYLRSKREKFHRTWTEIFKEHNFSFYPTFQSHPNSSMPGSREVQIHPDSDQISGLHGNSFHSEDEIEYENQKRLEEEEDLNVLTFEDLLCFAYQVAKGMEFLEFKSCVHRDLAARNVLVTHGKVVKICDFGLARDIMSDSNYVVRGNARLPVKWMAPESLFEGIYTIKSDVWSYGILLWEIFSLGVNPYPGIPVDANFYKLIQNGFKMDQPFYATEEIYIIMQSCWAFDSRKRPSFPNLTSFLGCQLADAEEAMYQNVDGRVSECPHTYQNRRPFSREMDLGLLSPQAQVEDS
The assay can be described thus: FLT3 enzymatic assay. It is filed as biochemical. To be noted: 1 mM ATP. The procedure, abridged: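 Kinase reaction at room temperature in HEPES 50 mM pH 7.0 with 10 mM MgCl2, 1 mM DTT: 0.011 nM FLT3, 1 mM ATP, 500 nM biotinylated TK substrate, 0.5% DMSO. After 60 min, HTRF read as 665/620 nm ratio; IC50 from fit of percent control activity versus log concentration.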

T1 sequence (O60674 826-1132): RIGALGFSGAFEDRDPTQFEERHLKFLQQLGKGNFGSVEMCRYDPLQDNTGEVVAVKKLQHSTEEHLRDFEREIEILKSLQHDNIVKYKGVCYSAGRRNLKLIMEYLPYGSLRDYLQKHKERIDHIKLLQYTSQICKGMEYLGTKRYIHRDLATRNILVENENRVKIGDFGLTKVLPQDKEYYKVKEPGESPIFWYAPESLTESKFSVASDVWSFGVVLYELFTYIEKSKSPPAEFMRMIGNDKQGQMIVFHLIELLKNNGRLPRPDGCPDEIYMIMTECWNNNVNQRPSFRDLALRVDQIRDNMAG

The term IC50 denotes the concentration needed to halve the response being measured. Take `[2H]C([2H])([2H])n1cc(-c2[nH]c3ncc4c(c3c2-c2ccc3c(cnn3C(C)C)c2)n([C@@H]2CC[C@@H](NC(=O)OC)C2)c(=O)n4C)c(F)n1` [Example 16, Methyl ((1R,3R)-3-(7-(3-fluoro-1-(methyl-d3)-1H-pyrazol-4-yl)-8-(1-isopropyl-1H-indazol-5-yl)-3-methyl-2-oxo-3,6-dihydroimidazo[4,5-d]pyrrolo[2,3-b]pyridin-1(2H)-yl)cyclopentyl)carbamate]: the IC50 in assay [1] (Table A) was more than 1 µM; in assay [1] (Table C), more than 1 µM; in assay [2] (Table A) it was not above 0.01 µM; in assay [2] (Table C), not above 0.01 µM; on FLT3, 1.25 to 2.5 µM.
On to `[2H]C([2H])([2H])n1cc(-c2[nH]c3ncc4c(c3c2-c2ccc3c(cnn3CC(F)F)c2)n([C@@H]2CC[C@@H](NC(=O)OC)C2)c(=O)n4C([2H])([2H])[2H])c(F)n1` [Example 14, Methyl ((1R,3R)-3-(8-(1-(2,2-difluoroethyl)-1H-indazol-5-yl)-7-(3-fluoro-1-(methyl-d3)-1H-pyrazol-4-yl)-3-(methyl-d3)-2-oxo-3,6-dihydroimidazo[4,5-d]pyrrolo[2,3-b]pyridin-1(2H)-yl)cyclopentyl)carbamate], for which the IC50 in assay [1] (Table A) was more than 1 µM; in assay [1] (Table C), more than 1 µM; in assay [2] (Table A), not above 0.01 µM; in assay [2] (Table C) it was not above 0.01 µM; against FLT3, 1.25 to 2.5 µM.
`[2H]C([2H])([2H])n1c(=O)n([C@@H]2CC[C@@H](NC(=O)OC)C2)c2c3c(-c4ccc5c(c4)COC5(C)C)c(-c4cn(C([2H])([2H])C([2H])([2H])[2H])nc4F)[nH]c3ncc21` [Example 19, Methyl ((1R,3R)-3-(8-(1,1-dimethyl-1,3-dihydroisobenzofuran-5-yl)-7-(1-(ethyl-d5)-3-fluoro-1H-pyrazol-4-yl)-3-(methyl-d3)-2-oxo-3,6-dihydroimidazo[4,5-d]pyrrolo[2,3-b]pyridin-1(2H)-yl)cyclopentyl)carbamate]: the IC50 in assay [1] (Table A) was more than 1 µM; in assay [1] (Table C), more than 1 µM; in assay [2] (Table A), not above 0.01 µM; in assay [2] (Table C), not above 0.01 µM; against FLT3, more than 2.5 µM.
With `[2H]C([2H])([2H])n1cc(-c2[nH]c3ncc4c(c3c2-c2ccc3c(c2)COC3(C)C)n([C@@H]2CC[C@@H](NC(=O)OC)C2)c(=O)n4C([2H])([2H])[2H])c(F)n1` [Example 8, Methyl ((1R,3R)-3-(8-(1,1-dimethyl-1,3-dihydroisobenzofuran-5-yl)-7-(3-fluoro-1-(methyl-d3)-1H-pyrazol-4-yl)-3-(methyl-d3)-2-oxo-3,6-dihydroimidazo[4,5-d]pyrrolo[2,3-b]pyridin-1(2H)-yl)cyclopentyl)carbamate], the IC50 was more than 1 µM in assay [1] (Table A); more than 1 µM in assay [1] (Table C); not above 0.01 µM in assay [2] (Table A); not above 0.01 µM in assay [2] (Table C); more than 2.5 µM against FLT3.
